This is an account of results in patent US5821330A, “Peptide having inflammation affinity and radioactive diagnostic containing the same” (Nihon Medi-Physics Co., Ltd., priority 1993, dated 1998).

Data set [1] deals with inflammation site of inflammatory model rats. The data set is described as follows: Imaging of inflammation sites using technetium-99m labeled peptide (turpentine oil inflammation model rats, gamma camera). The format is in vivo, Sparague-Davley Rats. Particulars: 37-74 MBq tail vein, mean ± standard error, three rats. The procedure: An amount of 240-300 nmol of Peptide-2 obtained in EXAMPLE 2 was taken into each vial, and a volume of a 0.1M phosphate buffer solution (pH 8.0) was added thereto to adjust the whole […] Atmosphere in the vial was replaced with argon; then 180-300 nmol of dithiothreitol was added thereto, The mixture was then allowed to react for one hour at room temperature. Next, 120 nmol of stannous chloride and 740-1110 MBq of sodium pertechnetate were added. The mixture was left for one hour under gentle agitation. Peptide-2 labeled with technetium-99m was yielded. Peptide labeled had radiochemical purity not less than 90%.
Experiments were made for all the peptides those prepared in EXAMPLEs 4, 5, 6 and 7. Each of the peptides was taken, in an amount of 0.2-1.0 μmol, into a vial respectively, and a volume of a 0.1M phosphate buffer solution (pH 8.0) was added thereto to adjust the whole volume to 500 μl. Atmosphere in the respective vial was replaced with argon. To each vial, 500 μl of 1.5-2.2 GBq/ml glucoheptanate labeled with technetium-99m yielded in EXAMPLE 16 was added and quickly agitated. Thereafter, the mixture was allowed to react for 20 minutes in a boiling water bath. Labeling percentage of all the experimented peptides after cooling was 90-95% according to TLC.
(§1) To the right femoral part of Sparague-Davley Rats weighing about 220 g, 100 μl of turpentine oil was subcutaneously administered. After 24 hours, when inflammation was clearly observed, Ravonal anesthesia was applied; then, Peptide-1-DTPA-indium-111 and Peptide-3-Sulfo-SMCC-CHI-DTPA-indium-111 obtained in EXAMPLE 14 were respectively administered in an amount of 3.7 MBq-7.4 MBq to the respective tail vein. Images were obtained with gamma camera one, three, and six hours later. A site of interest was set on the image, where the ratio ([T]/[B] ratio) of total counts for the inflammation site [T] to total counts for the corresponding normal site of the opposite leg [B] was determined. The [T]/[B] ratio, one hour after the administration, was 2.63 for Peptide-1-DTPA-indium-111 and 2.09 for Peptide-3-DTPA-indium-111, whereby the focal site was evidently imaged.
After Ravonal anesthesia was applied to the model rats described in EXAMPLE 18, 37-74 MBq of technetium-99m labeled Peptide-2 obtained in EXAMPLE 15, Peptide-4, Peptide-5, Peptide-6 and Peptide-7 obtained in EXAMPLE 17 were each administered to the respective tail vein. Images were obtained with gamma camera 30 minutes and one, three, and six hours later respectively. A site of interest was set on the image and the [T]/[B] ratio was determined. The [T]/[B] ratio, one hour after the administration, was 3.35 for Peptide-2, 4.98 for Peptide-6, 3.36 for Peptide-7, 4.27 for Peptide-4 and 4.41 for Peptide-5 whereby the focal site was evidently imaged.

Data set [2] can be described thus: Safety of the peptides: bolus tail vein administration to rat, observation until five days, dissection. In kind it is in vivo. Particulars: for abnormality in tissue checked with the naked eye (hemostatis, pigmentation, discoloration): dissection five days after 8.3 μg per 1.0 g of rat; for abnormality in tissue checked with the naked eye (hemostatis, pigmentation, discoloration) / extreme change in weight, i.e., weight gain or loss: tail vein; for symptoms such as slobber, vomiting, ocular proptosis, and behavioral abnormality: just after bolus tail vein administration, 8.3 μg per 1.0 g of rat; for extreme change in weight, i.e., weight gain or loss: until five days after 8.3 μg per 1.0 g of rat. As to the method:
Assuming that clinical dosage to human is 1.0 mg/60 kg, bolus administration of Peptide-1, Peptide 4 and Peptide-5 in an amount of 8.3 μg per 1.0 g of rat and physiological saline as control were made respectively to the tail vein of the rat. Immediately after the administration, behavior of the rat was observed. The observation was continued until five days later; zero minute, ten minutes, three hours, six hours, one day, two days, three days, four days, and five days later. Just after the peptide administration, symptoms such as slobber, vomiting, ocular proptosis, and behavioral abnormality were not observed. Furthermore, extreme change in weight, i.e., weight gain or loss was not observed until five days later. After weighing five days later, the rats were dissected. Abnormality in tissue was checked with the naked eye; abnormality in any tissue was not noted such as hemostatis, pigmentation, or discoloration. These gave estimation that more than 1,000 times administration of the assumed clinical dosage would be safe.

Data set [3] concerns focal region of model rats with infectious disease (Staphylococcus aureus). The data set is described as follows: Imaging of rat model with infectious disease (Staphylococcus aureus) using technetium-99m labeled peptide. In kind it is in vivo, Sparague-Davely Rats. Particulars: 37-74 MBq tail vein, mean ± standard error. As to the method:
In 1.0 mL of physiological saline, 10^8 of viable microbe cells of Staphylococcus aureus were suspended. An aliquot of 100 μl was administered intramuscularly to the right femoral region of Sparague-Davely Rats weighing about 220 g. After 24 hours, Ravonal anesthesia was applied to the model rats that had clearly evident inflammation; then, 37-74 MBq of technetium-99m labeled Peptide-6 obtained in […] was administered to the tail vein. Images were obtained with gamma camera one, three, and six hours later respectively. A site of interest was set on the image, and the [T]/[B] ratio was determined.

In data set [4] the test system is inflammation site of inflammation model rats. The data set is described as follows: Imaging of inflammation sites using indium-111 labeled peptide (turpentine oil inflammation model rats, gamma camera). In kind it is in vivo, Sparague-Davley Rats. To be noted: 3.7-7.4 MBq tail vein, mean ± standard error, three rats. As to the method:
Peptide-1-DTPA obtained in EXAMPLE 8, in an amount of 100 through 200 nmol was adjusted to pH 5.7 in a 0.1M citrate buffer solution, and then 37 to 74 MBq of indium (^111 In) chloride was added thereto. After agitation, the solution was left as such for 15 minutes. A part of the solution was taken and checked for the labeling percentage by electrophoresis. The radiochemical purity of the target compound was 98%. Peptide-3-Sulfo-SMCC-CHI-DTPA obtained in EXAMPLE 10 was also labeled with In-111 in the same way as above, and the radiochemical purity of the target compound was 90%.
as §1

The mark [5] stands for this setting: assumed clinical dosage to human 1.0 mg/60 kg, estimate from rat observation.

“And” between values parts separate entries of the source, which are not always exact repeats. Equal values may be shown once. Ends that are not written are not given here. Peptide text beside a SMILES is read from it. * marks the point of attachment. Acm = CC(=O)NC*

Consider “CGCGGLLGGPSV (cysteine pairing not given here; also: technetium-99m label) [Peptide-2]”, for which the “[T]/[B] ratio of Tc-99m labeled peptide in inflammatory model rats” value (shortened to “[T]/[B] ratio … in inflammatory model rats”) in data set [1] (1 hr. after administration) was 3.35 and 3.35 ± 0.33; in data set [1] (3 hrs. after administration) it was 2.78 ± 0.23; in data set [1] (6 hrs. after administration) it was 2.82 ± 0.17.
“C(Acm) GC(Acm)GGGKEYKAKVSNKALPAPIEKTISK (C(Acm)GC(Acm)GGGKEYKAKVSNKALPAPIEKTISK; also: technetium-99m label) [Peptide-4]”: the “[T]/[B] ratio … in inflammatory model rats” value was 2.47 ± 0.17 in data set [1] (30 mins after administration); 4.27 and 4.27 ± 0.26 in data set [1] (1 hr. after administration); 3.10 ± 0.20 in data set [1] (3 hrs. after administration). In addition, in data set [2] (setting [5]), the “estimated safe administration relative to the assumed clinical dosage” value was “more than 1,000 times”. The “abnormality in tissue checked with the naked eye (hemostatis, pigmentation, discoloration)” value (from here on “abnormality in tissue checked”) in data set [2] was “not noted”. Besides, the “symptoms such as slobber, vomiting, ocular proptosis, and behavioral abnormality” value (“symptoms such … and behavioral abnormality” below) in data set [2] is “not observed”. Besides, in data set [2], the “extreme change in weight, i.e., weight gain or loss” value is on record as “not observed”.
Take “C(Acm)GC(Acm)GGKTKPREQQYNSTYRVV (also: technetium-99m label) [Peptide-5]”: the “[T]/[B] ratio … in inflammatory model rats” value in data set [1] (30 mins after administration) is 2.61 ± 0.08; in data set [1] (1 hr. after administration), 4.41 and 4.41 ± 0.62; in data set [1] (3 hrs. after administration) it was 3.85 ± 0.63. In data set [2] (setting [5]), the “estimated safe administration relative to the assumed clinical dosage” value is listed as “more than 1,000 times”. The “abnormality in tissue checked” value in data set [2] was “not noted”. Also, in data set [2], the “symptoms such … and behavioral abnormality” value is on record as “not observed”. Further, the “extreme change in weight, i.e., weight gain or loss” value in data set [2] was “not observed”.
For “(PELLGGPSV)×4 in parallel (K)×2 in parallel (KGGC(Acm)GC(Acm)) (PELLGGPSVPELLGGPSVPELLGGPSVPELLGGPSVKKKGGC(Acm)GC(Acm); also: branched Lys scaffold carrying four PELLGGPSV arms) [Peptide-6]”, the “[T]/[B] ratio … in inflammatory model rats” value in data set [1] (1 hr. after administration) was 4.98 and 4.98 ± 0.23; in data set [1] (3 hrs. after administration) it was 4.61 ± 0.49; in data set [1] (6 hrs. after administration) it was 3.20 ± 0.39. The “[T]/[B] ratio of Tc-99m labeled peptide in model rats with infectious disease” value in data set [3] (1 hr. after administration, S. aureus intramuscular, right femoral region) is 1.92 and 1.92 ± 0.10; in data set [3] (3 hrs. after administration, S. aureus model), 1.58 ± 0.05; in data set [3] (6 hrs. after administration, S. aureus model) it was 1.52 ± 0.17.
With `CC(C)C[C@H](NC(=O)[C@@H](N)CC(C)C)C(=O)NCC(=O)NCC(=O)N1CCC[C@H]1C(=O)N[C@@H](CO)C(=O)N[C@H](C(=O)N[C@@H](CS)C(=O)O)C(C)C` [Peptide-3, LLGGPSVC] (H-LLGGPSVC-OH), the “[T]/[B] ratio of In-111 labeled peptides in inflammation model rats” value in data set [4] (1 hr. after administration, inflammation site vs opposite normal leg) came out at 2.09 ± 0.18; in data set [4] (3 hrs. after administration) it was 2.46 ± 0.29; in data set [4] (6 hrs. after administration), 2.78 ± 0.15.
Take “C(Acm)GC(Acm)GG[(PELLGGPSV)×3 repeats in tandem]A (C(Acm)GC(Acm)GGPELLGGPSVPELLGGPSVPELLGGPSVA; also: technetium-99m label) [Peptide-7]”: the “[T]/[B] ratio … in inflammatory model rats” value is 3.36 and 3.36 ± 0.31 in data set [1] (1 hr. after administration); 2.18 ± 0.39 in data set [1] (3 hrs. after administration); 2.26 ± 0.20 in data set [1] (6 hrs. after administration).
Consider `CC(C)C[C@H](NC(=O)[C@H](CC(C)C)NC(=O)[C@H](CCC(=O)O)NC(=O)[C@@H]1CCCN1C(=O)CNC(=O)CNC(=O)[C@@H](N)CCCCN)C(=O)NCC(=O)NCC(=O)N1CCC[C@H]1C(=O)N[C@@H](CO)C(=O)N[C@H](C(=O)O)C(C)C` [Peptide-1, KGGPELLGGPSV] (H-KGGPELLGGPSV-OH), for which, in data set [2], the “abnormality in tissue checked” value is given as “not noted”; the “symptoms such … and behavioral abnormality” value is “not observed”; the “extreme change in weight, i.e., weight gain or loss” value is reported as “not observed”. In data set [2] (rat, in vivo), the “estimated safe administration relative to the assumed clinical dosage” value is on record as “more than 1,000 times”.
